Experimental data from ChEMBL document CHEMBL5137019, “Sattahipmycin, a Hexacyclic Xanthone Produced by a Marine-Derived Streptomyces” (J Nat Prod, 2022).
In brackets after ≈: the same amount, converted by molar mass. Activity calls are given as the source filed them. The rule behind the calls is not given here.

How the values were obtained:
[1] = system: Escherichia coli; assay: Bactericidal activity against Escherichia coli NBRC 3972; type: functional
[2] = system: HeLa S3; assay: Cytotoxicity against human HeLa S3 cells assessed as cell growth inhibition and measured after 2 days by WST-8 assay; type: functional, cell-based; conditions: HeLa S3, 48 h
[3] = Cytotoxicity against human MRC5 cells assessed as cell growth inhibition and measured after 2 days by WST-8 assay; type: toxicity, cell-based
[4] = system: NCI-H1299; assay: Cytotoxicity against human NCI-H1299 cells assessed as cell growth inhibition and measured after 2 days by WST-8 assay; type: functional, cell-based; conditions: NCI-H1299, 48 h
[5] = system: PANC-1; assay: Cytotoxicity against human PANC-1 cells assessed as cell growth inhibition and measured after 2 days by WST-8 assay; type: functional, cell-based; conditions: PANC-1, 48 h
[6] = system: Xanthomonas campestris pv. oryzae; assay: Antibacterial activity against Xanthomonas campestris pv. oryzae KB88 assessed as bacterial growth inhibition by paper disc method; type: functional
[7] = Selectivity index, ratio of IC50 for cytotoxicity against human MRC5 cells to IC50 for antimalarial activity against […] Plasmodium falciparum FCR3; type: toxicity, cell-based; conditions: MRC5 cells versus Plasmodium falciparum FCR3, read-out: Ratio IC50
[8] = system: Kocuria rhizophila; assay: Antibacterial activity against Kocuria rhizophila KB212 assessed as bacterial growth inhibition by paper disc method; type: functional
[9] = system: Staphylococcus aureus; assay: Antibacterial activity against Staphylococcus aureus KB210 at 1 to 30 ug per disc by paper disc method; type: functional, organism-based; conditions: dose 1-30 µg
[10] = system: Bacillus subtilis; assay: Antibacterial activity against Bacillus subtilis KB211 at 1 to 30 ug paper disc by paper disc method; type: functional, organism-based; conditions: dose 1-30 µg
[11] = system: A549; assay: Cytotoxicity against human A549 cells assessed as cell growth inhibition and measured after 2 days by WST-8 assay; type: functional, cell-based; conditions: A549, 48 h
[12] = system: Plasmodium falciparum; assay: Antimalarial activity against chloroquine-resistant Plasmodium falciparum K1 assessed as parasite growth inhibition and measured after 72 hrs by ELISA; type: functional, organism-based; conditions: K1, 72 h
[13] = system: HT-29; assay: Cytotoxicity against human HT-29 cells assessed as cell growth inhibition and measured after 2 days by WST-8 assay; type: functional, cell-based; conditions: HT-29, 48 h
[14] = system: Micrococcus luteus; assay: Antibacterial activity against Micrococcus luteus KB212 at 1 to 30 ug per disc by paper disc method; type: functional, organism-based; conditions: dose 1-30 µg
[15] = system: Xanthomonas campestris pv. oryzae; assay: Antibacterial activity against Xanthomonas campestris pv. oryzae KB88 at 1 to 30 ug per disc by paper disc method; type: functional, organism-based; conditions: dose 1-30 µg
[16] = system: Escherichia coli; assay: Antibacterial activity against Escherichia coli NBRC 3972 assessed as bacterial growth inhibition by paper disc method; type: functional
[17] = system: Escherichia coli; assay: Antibiofilm activity against Escherichia coli NBRC 3972 assessed as inhibition of biofilm formation at 15 to 60 ug/ml incubated overnight by crystal violet staining based ELISA; type: functional; conditions: dose 15-60 µg/ml; at 15 to 60 µg/mL
[18] = Selectivity index, ratio of IC50 for cytotoxicity against human MRC5 cells to IC50 for antimalarial activity against chloroquine-resistant Plasmodium falciparum K1; type: toxicity, cell-based; conditions: MRC5 cells versus Plasmodium falciparum K1, read-out: Ratio IC50
[19] = system: Bacillus subtilis; assay: Antibacterial activity against Bacillus subtilis KB211 assessed as bacterial growth inhibition by paper disc method; type: functional
[20] = system: Staphylococcus aureus; assay: Antibacterial activity against Staphylococcus aureus KB210 assessed as bacterial growth inhibition by paper disc method; type: functional
[21] = system: Plasmodium falciparum; assay: Antimalarial activity against chloroquine-sensitive Plasmodium falciparum FCR3 assessed as parasite growth inhibition and measured after 72 hrs by ELISA; type: functional, organism-based; conditions: FCR3, 72 h

With `COc1c2c(c(O)c3c(=O)c4cccc(O)c4oc13)-c1c(cc3cc(C)[nH]c(=O)c3c1O)C[C@H]2O` as the molecule, how does the Activity [1] read?
The Activity was over 250 µg/mL.

What about the IC50 [2] of the same molecule?
The IC50 was 2180 nM.

What about the IC50 at 2 days [3] of the same molecule?
The IC50 at 2 days was 170 nM.

And the IC50 [4]?
The IC50 was 10600 nM.

What about the IC50 [5] of the same molecule?
The IC50 was 12900 nM.

And the MIC [6]?
Its MIC is 0.25 µg/mL (≈ 0.528 µM).

What about the selectivity ratio [7] of the same molecule?
The selectivity ratio was 0.85.

And the MIC [8]?
The MIC was 0.25 µg/mL (≈ 0.528 µM).

What about the Activity [9] of the same molecule?
Its Activity is “Active”.

And the Activity [10]?
Its Activity is “Active”.

What about the IC50 [11] of the same molecule?
Its IC50 is 1860 nM.

And the IC50 [12]?
Its IC50 is 270 nM.

And the IC50 [13]?
The IC50 was 1900 nM.

And the Activity [14]?
Its Activity is “Active”.

And the Activity [15]?
Its Activity is “Active”.

And the MIC [16]?
The MIC was over 250 µg/mL.

And the “inhibition (INH)” value [17]?
The value was 50%.

And the selectivity ratio [18]?
The selectivity ratio was 0.62.

And the MIC [19]?
The MIC was 0.25 µg/mL (≈ 0.528 µM).

And the MIC [20]?
Its MIC is 0.25 µg/mL (≈ 0.528 µM).

What about the IC50 [21] of the same molecule?
Its IC50 is 200 nM.

With `CCN(CC)CCCC(C)Nc1ccnc2cc(Cl)ccc12` (configuration not stated) [CHLOROQUINE] as the molecule, how does the IC50 at 2 days [3] read?
Its IC50 at 2 days is 58200 nM.

For `C[C@@H]1CC[C@H]2[C@@H](C)C(=O)O[C@@H]3O[C@@]4(C)CC[C@@H]1[C@]32OO4` [ARTEMISININ], which IC50 at 2 days [3] is on record?
Its IC50 at 2 days is 50300 nM.

What about the selectivity ratio [7] of the same molecule?
The selectivity ratio was 2030.

And the IC50 [12]?
Its IC50 is 30 nM.

And the selectivity ratio [18]?
Its selectivity ratio is 1580.

What about the IC50 [21] of the same molecule?
The IC50 was 20 nM.
